Key:
[1] = target: T1, RSV fusion (pCDNA3.1_A2_F in HEK 293T cells) (Human respiratory syncytial virus A, UniProt P03420); experiment: RSV fusion assay; assay type: cell-based
T1 construct: expressed in transfected cells; host or cells: HEK 293T (ECACC 12022001)
Method: HEK 293T ((ECACC 12022001) cells were cultured in T75 culture flasks in Dulbecco's medium (DMEM) containing 10% Foetal Bovine serum (FBS), 50 units per mL Penicillin and 50 μg/mL Streptomycin and warmed to 37° C. prior to use. The cells were passaged by first washing briefly with 5 mL Phosphate buffered saline (PBS), followed by addition of 2 mL of Trypsin Ethylenediaminetetraacetic acid (EDTA) to detach the cells. Once cells had detached from the flask, 8 mL media was then added to and the cells dispersed via pipetting against the bottom of the flask.
The cells were counted and diluted to 3×10^5 cells/ml in fresh media. Two T75 flasks were each seeded with 15.6 mL diluted cells, cells were also subcultured at a ratio of between 1:2 and 1:10, to continue the stock. The flasks were then incubated for 24 h at 37° C. and 5% CO2.
The plasmid DNA (for pFR-Luc and pcDNA3. 1_Gal4/NFKB) to be transfected into the HEK 293T cells was first prepared in serum free media (Opti-MEM, Invitrogen), containing the transfection reagent FuGENE® 6 (Promega). Serum free media was placed in a 1.5 mL eppendorf tube then the FuGENE 6 was added into the media. The tube was vortexed for 1 s before being incubated at RT for 5 min. 7.79 ng of both pFR_luc and pCDNA3.1_A2_F plasmid DNA were added to tube 1 and 7.79 ng of pCDNA3.1_GAL4-NF-κB plasmid to tube 2. The tubes were vortexed for 1 second and then incubated at room temperature for 15 min. Each transfection mixture was then added into the media of one of the T75 flasks of 293T cells. Cells were cultured for 24h at 37° C., 5% CO2 in a humidified incubator.
Compounds were diluted (in a polypropylene round-bottomed 96 well plate) 1:3 in a twelve point dilution curve to give top [final] of either 25 μM, 3 μM, 1 μM or 500 nM. A control compound was included in every assay at a top concentration of 3 μM. Transfected cells were counted and diluted to 4×10^5 cells/mL in fresh media. 50 μL of transfection population 1 were added to all wells of the 96 well flat bottom white opaque assay plates. 100 μL diluted compound (2 rows per compound), control compound (one row) and controls (DMSO (0% inhibition, four wells), 3 μM positive control (100% inhibition, four wells) and media (transfection population 1 only, four wells) were added to the appropriate wells. 50 μL of the diluted (4×10^5 cells/mL) population 2 cells when then added to all wells, except the four wells of transfection population 1 only where an extra 50 μL of this cells population was added.
The plates were then incubated for 24 h at 37° C. and 5% CO2. After this time, 100 μL was removed from all wells and 60 μL of ONE-Glo™ (Promega) reagent, pre-equilibrated to room temperature, was added. Plates were then incubated for 3 min at room temperature before luminescence was read, using the ONE-Glo protocol, on the GloMax Explorer System (Promega) multimode reader. Analysis was carried out in Dotmatics software. All raw data were background subtracted (subtraction of mean 3 μM positive control value), before IC50 calculation.

MDR1 = experiment: in vitro; assay type: in vitro ADME; conditions: dog, MDCK-MDR1
Method: MDR1-MDCK cells obtained from the NIH (Rockville, Md., USA) are used between passage numbers 6-30. Cells are seeded onto Millipore Multiscreen Transwell plates at 3.4×10^5 cells/cm^2. The cells are cultured in DMEM and media is changed on day 3. On day 4 the permeability study is performed. Cell culture and assay incubations are carried out at 37° C. in an atmosphere of 5% CO2 with a relative humidity of 95%. On the day of the assay, the monolayers are prepared by rinsing both basolateral and apical surfaces twice with Hanks Balanced Salt Solution (HBSS) at the desired pH warmed to 37° C. Cells are then incubated with HBSS at the desired pH in both apical and basolateral compartments for 40 min to stabilise physiological parameters.
The dosing solutions are prepared by diluting test compound with assay buffer to give a final test compound concentration of 10 μM (final DMSO concentration of 1% v/v). The fluorescent integrity marker lucifer yellow is also included in the dosing solution. Analytical standards are prepared from test compound DMSO dilutions and transferred to buffer, maintaining a 1% v/v DMSO concentration.
For assessment of A-B permeability, HBSS is removed from the apical compartment and replaced with test compound dosing solution. The apical compartment insert is then placed into a companion plate containing fresh buffer (containing 1% v/v DMSO). For assessment of B-A permeability, FIBSS is removed from the companion plate and replaced with test compound dosing solution. Fresh buffer (containing 1% v/v DMSO) is added to the apical compartment insert, which is then placed into the companion plate. At 60 min the apical compartment inserts and the companion plates are separated and apical and basolateral samples diluted for analysis. Test compound permeability is assessed in duplicate. Compounds of known permeability characteristics are run as controls on each assay plate.
Test and control compounds are quantified by LC-MSMIS cassette analysis using an 8-point calibration with appropriate dilution of the samples. The starting concentration (C0) is determined from the dosing solution and the experimental recovery calculated from C0 and both apical and basolateral compartment concentrations. The integrity of the monolayer throughout the experiment is checked by monitoring lucifer yellow permeation using fluorimetric analysis. Lucifer yellow permeation is high if monolayers have been damaged.

[2] = Liver microsomal stability, human; assay type: in vitro ADME; conditions: pooled liver microsomes, pH 7.4; human liver microsomes 0.5 mg/mL; 3 μM compound; read-out: Liver Microsoinal Stability t1/2, human
Method: (§1) Pooled liver microsomes are purchased from a reputable commercial supplier and stored at −80° C. prior to use. Microsomes (final protein concentration 0.5 mg/mL), 0.1 M phosphate buffer pH 7.4 and test compound (final substrate concentration 3 μM; final DMSO concentration 0.25%) are pre-incubated at 37° C. prior to the addition of NADPH (final concentration 1 mM) to initiate the reaction. The final incubation volume is 50 uL. A control incubation is included for each compound tested where 0.1 M phosphate buffer pH 7.4 is added instead of NADPH (minus NADPH). Two control compounds are included with each species. All incubations are performed singularly for each test compound. Each compound is incubated for 0, 5, 15, 30 and 45 min. The control (minus NADPH) is incubated for 45 min only. The reactions are stopped by transferring 20 μL of incubate to 60 μL MeOH at the appropriate time points. The termination plates are centrifuged at 2,500 rpm for 20 min at 4° C. to precipitate the protein. Following protein precipitation, the sample supernatants are combined in cassettes of up to 4 compounds, internal standard is added and samples analysed by LC-MS/MS. From a plot of In peak area ratio (compound peak area/internal standard peak area) against time, the gradient of the line is determined. Subsequently, half-life and intrinsic clearance are calculated.

[3] = Liver microsomal stability, dog; assay type: in vitro ADME; conditions: pooled liver microsomes, pH 7.4; dog liver microsomes 0.5 mg/mL; 3 μM compound; read-out: Liver Microsoinal Stability t1/2, dog
Method: as §1

T1 sequence (P03420 26-109): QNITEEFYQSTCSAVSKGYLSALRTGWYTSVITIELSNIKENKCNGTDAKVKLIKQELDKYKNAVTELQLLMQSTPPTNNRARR
T1 sequence (P03420 137-574): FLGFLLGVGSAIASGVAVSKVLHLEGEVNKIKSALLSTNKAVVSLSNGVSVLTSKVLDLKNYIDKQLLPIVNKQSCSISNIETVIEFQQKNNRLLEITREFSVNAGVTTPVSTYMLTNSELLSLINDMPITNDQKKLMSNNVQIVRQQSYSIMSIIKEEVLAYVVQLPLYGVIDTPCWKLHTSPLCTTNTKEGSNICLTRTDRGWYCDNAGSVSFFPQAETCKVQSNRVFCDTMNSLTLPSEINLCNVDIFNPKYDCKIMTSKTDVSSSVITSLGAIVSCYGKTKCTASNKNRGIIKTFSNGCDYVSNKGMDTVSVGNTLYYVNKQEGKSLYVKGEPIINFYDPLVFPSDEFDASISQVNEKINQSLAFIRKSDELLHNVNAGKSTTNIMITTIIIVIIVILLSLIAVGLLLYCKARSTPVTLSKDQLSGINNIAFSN

SMILES | IC50 [1] [nM] | Papp A→B at 60 min, 10 μM (MDR1) [×10⁻⁶ cm/s] | Papp B→A at 60 min, 10 μM (MDR1) [×10⁻⁶ cm/s] | half-life at 3 μM [2] [h] | half-life at 3 μM [3] [h]
CS(=O)(=O)N1CCC(n2c(CN3C(=O)C4(CC4)c4ccc(F)cc43)nc3cc(Cl)ccc32)CC1 [Compound 33, 1′-{[5-Chloro-1-(1-methanesulfonylpiperidin-4-yl)-1H-1,3-benzodiazol-2-yl]methyl}-6′-fluoro-1′,2′-dihydrospiro[cyclopropane-1,3′-indole]-2′-one] | 3.3 | 12.4 | 35.5 | 8.1 | 3.1
CCS(=O)(=O)N1CCC(n2c(CN3C(=O)C4(CC4)c4ccc(F)cc43)nc3cc(Cl)ccc32)CC1 [Compound 35, 1′-({5-Chloro-1-[1-(ethanesulfonyl)piperidin-4-yl]-1H-1,3-benzodiazol-2-yl}methyl)-6′-fluoro-1′,2′-dihydrospiro[cyclopropane-1,3′-indole]-2′-one] | 5 | 12.7 | 22.8 | 0.577 | 2.77

Source: patent publication US11078189B2, “Pharmaceutical compounds” (REVIRAL LIMITED, priority 2017, dated 2021)
